# Source: article PMC9189931 (Nature chemical biology, 2021)
# Entries after “also recorded” stand apart in the source; their conditions may differ. Numbered stars: 1 amine (or outer) side, 2 acyl side, 3 side chain; on linkers, the order of the positions; unused ones are H or OH. Bridge positions count the residues as written; N and C are the ends. Square brackets hold non-standard residues; d marks the D form. Peptide text beside a SMILES is read from it. I, II: the chains in the order shown. Actinocin(9to1) = Cc1c2oc3c(C)ccc(C(=O)[*:1])c3nc-2c(C(=O)[*:2])c(N)c1=O; NMeV = CN[C@H](C(=O)O)C(C)C; Sar = CNCC(=O)O
# What was measured:
# [1] = system: NSD2-GFP localization in U2OS cells; experiment: Nucleolar colocalization of GFP-tagged NSD2 WT and mutants with RFP-fibrillarin; format: cell-based; details: 4 h, 5 μM compound
# [2] = molecular target: T1, NSD3-PWWP1 interaction with histone H3.3 (Homo sapiens, UniProt Q9BZ95); experiment: NanoBRET PPI assay, NSD3-PWWP1; format: cell-based; details: U2OS cells, 10 μM compound
# T1 sequence (Q9BZ95 270-333 limits assumed): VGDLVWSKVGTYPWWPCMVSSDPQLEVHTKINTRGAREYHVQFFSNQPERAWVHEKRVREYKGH
# [3] = system: endogenous NSD2 localization in U2OS cells; experiment: Confocal microscopy of endogenous NSD2 nucleolar localization; format: cell-based; details: 4 h; for steady-state pool of nucleolar NSD2 under nucleolar perturbation: actinomycin D 50 nM, doxorubicin 1 μM
# [4] = system: adherent or hematopoietic malignancy cell lines; experiment: Cytotoxicity profiling; format: cell-based; details: up to 5 μM over 3–12 d
# [5] = system: mRNA levels of NSD2 target genes in KMS-11 cells; experiment: RT-qPCR of NSD2 target genes; format: cell-based; details: 5 μM, 72 h
# [6] = molecular target: human sodium-dependent serotonin transporter (Homo sapiens, UniProt P31645); experiment: NIMH PDSP panel of CNS receptors, channels and transporters; format: binding
# [7] = system: global H3K36 methylation in KMS-11 cells; experiment: Western blotting for global H3K36 methylation; format: cell-based; details: 72 h
# [8] = system: loci-specific H3K36me2 levels in KMS-11 cells; experiment: H3K36me2 ChIP-qPCR; format: cell-based; details: 5 μM, 72 h
# [9] = system: panel of 33 methyltransferase domains, including NSD1, NSD2, NSD3 and SETD2; experiment: Methyltransferase selectivity panel; format: biochemical; details: 1 and 10 μM compound
# [10] = system: KMS-11 t(4; 14) MM cells; experiment: Proliferation of KMS-11 cocultured with OP9 bone marrow stromal cells; format: cell-based; details: 5 μM for 10 d before seeding on OP9
# [11] = system: ribosomal RNA (rRNA) transcription; experiment: rRNA transcription; details: for pre-rRNA expression levels by RT-qPCR: 5 μM compound at 2, 4, or 16 hours
# [12] = system: fl-NSD2 chromatin association in KMS-11 cells; experiment: Cell fractionation, NSD2 release from chromatin; format: cell-based; details: KMS-11 cell fractionation, 10 μM compound
# [13] = molecular target: T2, NSD2-PWWP1 (Homo sapiens, UniProt O96028); experiment: SPR binding to immobilized NSD2-PWWP1
# T2 sequence (O96028 208-368): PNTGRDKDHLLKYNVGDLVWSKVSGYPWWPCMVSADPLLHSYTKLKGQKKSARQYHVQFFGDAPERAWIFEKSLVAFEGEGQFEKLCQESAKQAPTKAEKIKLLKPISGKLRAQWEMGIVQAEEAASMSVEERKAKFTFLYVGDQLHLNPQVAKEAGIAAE
# [14] = molecular target: T3, endogenous NSD2 (Homo sapiens, UniProt O96028); experiment: UNC7096 chemical pulldown and chemical proteomics in KMS-11 whole-cell lysates; format: binding
# T3 sequence (O96028 1-627 limits assumed): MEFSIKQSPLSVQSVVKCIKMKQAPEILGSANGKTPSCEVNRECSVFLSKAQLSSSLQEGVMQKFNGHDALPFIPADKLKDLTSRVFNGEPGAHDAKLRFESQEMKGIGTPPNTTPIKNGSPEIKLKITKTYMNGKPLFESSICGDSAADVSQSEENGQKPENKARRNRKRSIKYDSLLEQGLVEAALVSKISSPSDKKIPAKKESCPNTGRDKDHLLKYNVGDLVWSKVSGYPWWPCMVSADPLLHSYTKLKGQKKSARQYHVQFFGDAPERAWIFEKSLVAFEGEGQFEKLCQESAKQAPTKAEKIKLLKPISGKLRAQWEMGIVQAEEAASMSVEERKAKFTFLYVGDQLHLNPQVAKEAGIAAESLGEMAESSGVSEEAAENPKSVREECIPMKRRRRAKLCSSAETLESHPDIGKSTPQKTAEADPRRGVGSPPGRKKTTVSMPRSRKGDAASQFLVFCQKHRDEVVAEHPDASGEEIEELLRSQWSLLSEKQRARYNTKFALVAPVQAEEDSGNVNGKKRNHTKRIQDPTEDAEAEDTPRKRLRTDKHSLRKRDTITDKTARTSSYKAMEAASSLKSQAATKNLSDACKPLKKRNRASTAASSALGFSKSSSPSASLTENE
# [15] = system: 15 other human PWWP domains; details: DSF, 100 μM compound
# [16] = molecular target: T4, NSD2-PWWP1 interaction with nucleosomal H3K36me2 (Homo sapiens, UniProt O96028); experiment: AlphaScreen; format: binding
# T4 sequence (O96028 208-368): T2 sequence (O96028 208-368)
# [17] = molecular target: T5, dsDNA binding to NSD2-PWWP1 (Homo sapiens, UniProt O96028); experiment: Fluorescence polarization DNA binding and displacement assay; details: FP
# T5 sequence (O96028 208-368): T2 sequence (O96028 208-368)
# [18] = molecular target: T6, fl-NSD2 interaction with nucleosomal H3K36me2 (Homo sapiens, UniProt O96028); experiment: AlphaScreen; format: binding; details: read-out: IC50, disengagement of fl-NSD2 from nucleosomal H3K36me2, in the presence of SSD (2 μg ml^−1)
# T6 sequence (O96028 1-1365): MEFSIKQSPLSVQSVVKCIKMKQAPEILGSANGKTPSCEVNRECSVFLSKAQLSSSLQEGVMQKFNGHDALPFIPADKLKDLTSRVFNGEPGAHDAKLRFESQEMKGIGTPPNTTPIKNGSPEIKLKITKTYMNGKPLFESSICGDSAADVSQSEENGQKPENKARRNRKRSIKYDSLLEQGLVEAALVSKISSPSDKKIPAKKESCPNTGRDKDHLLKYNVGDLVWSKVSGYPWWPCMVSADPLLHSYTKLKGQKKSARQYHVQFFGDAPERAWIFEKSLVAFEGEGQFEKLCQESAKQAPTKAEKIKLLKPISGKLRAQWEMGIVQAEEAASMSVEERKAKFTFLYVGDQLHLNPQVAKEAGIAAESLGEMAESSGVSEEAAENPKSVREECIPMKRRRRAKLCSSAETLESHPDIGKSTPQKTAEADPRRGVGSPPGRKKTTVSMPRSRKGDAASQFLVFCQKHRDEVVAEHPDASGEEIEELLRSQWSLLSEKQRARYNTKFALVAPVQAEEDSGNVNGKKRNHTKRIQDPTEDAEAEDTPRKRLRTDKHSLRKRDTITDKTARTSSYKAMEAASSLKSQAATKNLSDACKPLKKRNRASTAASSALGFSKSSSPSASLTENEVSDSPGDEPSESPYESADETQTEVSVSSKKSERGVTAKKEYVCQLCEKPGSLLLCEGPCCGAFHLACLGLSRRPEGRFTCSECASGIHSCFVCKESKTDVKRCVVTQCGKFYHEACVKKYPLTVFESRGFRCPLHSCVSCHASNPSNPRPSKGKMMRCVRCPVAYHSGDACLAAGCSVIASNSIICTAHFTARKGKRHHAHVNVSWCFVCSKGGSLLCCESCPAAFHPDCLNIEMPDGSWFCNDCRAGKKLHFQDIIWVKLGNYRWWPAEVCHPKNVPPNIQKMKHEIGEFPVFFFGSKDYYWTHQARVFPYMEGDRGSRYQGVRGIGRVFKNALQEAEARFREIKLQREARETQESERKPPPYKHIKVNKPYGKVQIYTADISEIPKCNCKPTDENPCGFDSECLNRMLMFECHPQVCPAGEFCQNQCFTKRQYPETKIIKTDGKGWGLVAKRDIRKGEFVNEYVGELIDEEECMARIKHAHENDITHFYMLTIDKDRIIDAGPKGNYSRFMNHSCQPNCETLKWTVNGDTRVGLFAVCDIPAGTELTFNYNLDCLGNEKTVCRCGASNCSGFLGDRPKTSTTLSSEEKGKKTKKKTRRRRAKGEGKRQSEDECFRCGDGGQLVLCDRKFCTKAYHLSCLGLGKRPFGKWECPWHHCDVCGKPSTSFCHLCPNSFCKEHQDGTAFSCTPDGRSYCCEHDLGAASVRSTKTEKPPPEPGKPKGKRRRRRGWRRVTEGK
# Chain of human sodium-dependent serotonin transporter (P31645 whole entry): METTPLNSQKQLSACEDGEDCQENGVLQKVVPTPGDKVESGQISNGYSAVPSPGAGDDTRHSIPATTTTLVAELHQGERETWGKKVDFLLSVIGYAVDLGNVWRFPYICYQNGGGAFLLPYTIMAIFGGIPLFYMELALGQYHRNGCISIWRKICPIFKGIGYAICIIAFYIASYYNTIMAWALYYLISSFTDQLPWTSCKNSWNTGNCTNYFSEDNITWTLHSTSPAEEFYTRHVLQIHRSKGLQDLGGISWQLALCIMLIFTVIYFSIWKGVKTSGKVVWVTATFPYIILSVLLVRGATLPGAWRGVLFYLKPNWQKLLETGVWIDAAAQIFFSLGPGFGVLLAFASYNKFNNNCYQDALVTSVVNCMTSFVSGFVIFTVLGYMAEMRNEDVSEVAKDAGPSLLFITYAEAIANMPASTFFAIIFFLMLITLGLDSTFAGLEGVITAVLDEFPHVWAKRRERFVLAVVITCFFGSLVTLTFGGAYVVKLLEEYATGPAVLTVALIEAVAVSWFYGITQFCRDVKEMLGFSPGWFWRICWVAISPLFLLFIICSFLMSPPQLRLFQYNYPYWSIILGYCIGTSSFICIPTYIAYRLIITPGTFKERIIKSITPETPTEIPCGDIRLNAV
compound,measurement,setting,value
O=C1COc2cc(C(=O)N(Cc3ccc(C(=O)Nc4ccncn4)cc3)C3CC3)ccc2N1 [UNC6934],nucleolar localization of PWWP1 aromatic cage mutant NSD2-GFP,[1],no further increase
same,nucleolar signal of WT NSD2-GFP,[1],increase in nucleolar signal
same,nucleolar colocalization of PHD2 and PWWP2 mutant NSD2-GFP,"[1]; H762R, W894A",additive effect
same,BRET signal of NSD3-PWWP1,[2],unaffected
same,NSD2 signal within nucleoli,[3]; 5 μM compound,increase in NSD2 signal within nucleoli
same,correlation (PCC) between NSD2 and fibrillarin signals,[3]; 5 μM compound,significant increase
same,acute cytotoxic effects,[4],no acute cytotoxic effects
same,mRNA levels of NSD2 target genes,[5],did not observe changes
same,Ki,[6],1400 ± 800 nM
same,inhibition at 10 µM,[6],> 50%
same,global H3K36 methylation,[7],no significant change; also recorded: no changes
same,loci-specific H3K36me2 levels,[8],did not observe changes
same,inhibition of methyltransferases,[9],did not inhibit any
same,proliferation of KMS-11 cells grown on bone marrow stroma,[10],no changes
same,effect on ribosomal RNA (rRNA) transcription,[11]; 5 μM compound,no significant effect
same,pre-rRNA expression levels by RT-qPCR,[11],no major effect
same,release of fl-NSD2 from chromatin,[12],modest release
"COc1cccc2c1C(=O)c1c(O)c3c(c(O)c1C2=O)C[C@@](O)(C(=O)CO)C[C@@H]3O[C@H]1C[C@H](N)[C@H](O)[C@H](C)O1 [doxorubicin, reference compound]",steady-state pool of nucleolar NSD2 under nucleolar perturbation,[3],sensitive
O=C1COc2cc(C(=O)N(Cc3cccs3)C3CC3)ccc2N1 [MRT866],Kd,[13],349 ± 19 nM
"Cc1c2oc3c(C)ccc(C(=O)N[C@@H]4C(=O)N[C@H](C(C)C)C(=O)N5CCC[C@H]5C(=O)N(C)CC(=O)N(C)[C@@H](C(C)C)C(=O)O[C@@H]4C)c3nc-2c(C(=O)N[C@@H]2C(=O)N[C@H](C(C)C)C(=O)N3CCC[C@H]3C(=O)N(C)CC(=O)N(C)[C@@H](C(C)C)C(=O)O[C@@H]2C)c(N)c1=O [actinomycin D, reference compound] (I: T[dV]P[Sar][NMeV] / II: T[dV]P[Sar][NMeV]; ester I:1-I:C, II:1-II:C; linker I:N-II:N via Actinocin(9to1))",steady-state pool of nucleolar NSD2 under nucleolar perturbation,[3],sensitive
O=C(CCCC[C@@H]1SC[C@@H]2NC(=O)N[C@@H]21)NCCOCCOCCOCCOCCOCCOCCOCCOCCOCCOCCOCCNC(=O)c1ccc(NC(=O)c2ccc(CN(C(=O)c3ccc4c(c3)OCC(=O)N4)C3CC3)cc2)cc1 [UNC7096],enrichment of NSD2-short and NSD2-long isoforms by pulldown,"[14]; KMS-11 whole-cell lysates, immunoblotting",efficiently enriched
same,Kd,[13],46 nM
CC(C)N(Cc1ccc(C(=O)Nc2ccncn2)cc1)C(=O)c1ccc2c(c1)OCC(=O)N2 [UNC7145],NSD2 signal within nucleoli,[3]; 5 μM compound,no effect
same,acute cytotoxic effects,[4],no acute cytotoxic effects
same,selectivity over other PWWP domains,[15],inactive
same,"IC50, disruption of NSD2-PWWP1 interaction with nucleosomal H3K36me2",[16],no measurable effect
same,pattern of dsDNA binding to NSD2-PWWP1 in the presence of compound,"[17]; 20 μM compound, NSD2-PWWP1 up to 2.5 μM",No significant difference
same,displacement of fluorescein-labelled dsDNA from NSD2-PWWP1,[17]; compound up to 25 μM,no significant effect
same,global H3K36 methylation,[7],no significant change
same,inhibition of methyltransferases,[9],inactive
same,IC50,[18],5100 ± 1000 nM
same,proteins depleted from UNC7096 pulldown by competition,"[14]; label-free proteomics, 20 μM compound, relative to DMSO",did not considerably alter the enrichment profile
same,pre-rRNA expression levels by RT-qPCR,[11],no major effect
